Experimental data from patent US20240391954A1, “MC4R AGONIST PEPTIDES” (The Regents of the University of Michigan, priority 2021, published 2024).
“And” between values parts separate entries of the source, which are not always exact repeats. Equal values may be shown once. Read-outs that look alike come from different tables or passages of the source. Positions of bridges follow the written chain, without caps; N, C: chain ends. Non-standard residues stand in square brackets, D forms with d. Residues, ends and D or L forms follow the SMILES beside them. Cit = NC(=O)NCCC[C@H](N)C(=O)O; Nle = CCCC[C@H](N)C(=O)O

B1: CTX-1228 (peptide)
peptide: Ac-R[Nle]CR[dF]RWC-NH2
modifications: disulfide 3-8
SMILES: CCCC[C@H](NC(=O)[C@H](CCCNC(=N)N)NC(C)=O)C(=O)N[C@H]1CSSC[C@@H](C(N)=O)NC(=O)[C@H](Cc2c[nH]c3ccccc23)NC(=O)[C@H](CCCNC(=N)N)NC(=O)[C@@H](Cc2ccccc2)NC(=O)[C@H](CCCNC(=N)N)NC1=O

Assays:
[1] = Mouse plasma stability; assay type: in vitro ADME; conditions: 37° C.; for half-life at 1 µM: pooled mouse plasma
Experimental: FIG. 3. Results of plasma stability testing for control peptides. Compounds shown were incubated in mouse plasma at 37° C. at 1 μM concentrations. 40 ul aliquots were removed at the times indicated and the reactions stopped with the addition of 160 μL cold acetonitrile containing 200 ng/ml of peptide internal standard (IS). The incubation solution was centrifuged at 3500 rpm for 10 minutes to precipitate protein. LC/MS/MS analysis was used to determine the % peptide remaining.
Pooled mouse plasma was prepared and stored at −80° C, prior to use, 396 μL mouse plasma was incubated at 37° C. for 5 minutes in 1.5 mL microcentrifuge tubes. 4 μL of 100 μM test or control compound/peptide was added to each tube and incubated for 0.5, 15, 30, 60, 120, or 240 minutes. An aliquot of 40 μL of each reaction was stopped by the addition of 4 volume of cold acetonitrile containing 200 ng/mL of […] solution was centrifuged at 3500 rpm for 10 minutes to precipitate protein. The supernatant was used for LC/MS/MS analysis. The natural log peak area ratio (compound peak area/internal standard peak area) was plotted against time and the gradient of the line determined.

[2] = Pharmacokinetics: plasma and brain concentration after IP injection; assay type: in vivo, mouse; conditions: for Brain concentration, individual mice 1-3 / Plasma concentration, individual mice 1-3: individual animals, listed as setmelanotide
Experimental: FIG. 5. Pharmacokinetic data for an exemplary peptide relative to setmelanotide. Peptides at 1.5 mg/mL in PBS containing 10% DMSO and 10% PEG-400 were given by IP injection (15 mg/kg) to female CD-1 mice (n=15). At the given time points (0.5 h, 2 h, 4 h, 7 h and 24 h), brain samples were taken out and frozen at −80° C. immediately for later preparation and analysis, and blood samples were collected using heparinized calibrated pipettes. Blood samples were centrifuged at 15000 rpm for 10 min. Subsequently, blood plasma was collected from the upper layer. The plasma was frozen at −80° C. for later analysis. Peptide concentrations at times indicated were determined by LC MS/MS, using non-zero standards in blank Plasma and Brain Samples.
The drug at 1.5 mg/mL in PBS containing 10% DMSO and 10% PEG-400 was given by IP injection (15 mg/kg). At the given time points (0.5 h, 2 h, 4 h, 7 h and 24 h), brain samples were taken out and frozen at −80° C. immediately for later preparation and analysis, and blood samples were collected using heparinized calibrated pipettes. Blood samples were centrifuged at 15000 rpm for 10 min. Subsequently, blood plasma was collected from the upper layer. The plasma was frozen at −80° C. for later analysis.
The analytical curves were constructed using non-zero standards in the blank Plasma and Brain Samples. A blank sample (matrix sample processed without internal standard) was used to exclude contamination. The linear regression analysis of CTX1227/setmelanotide were performed by plotting the peak area ratio (y) against the CTX1227/setmelanotide concentration (x) in ng/mL, respectively.

[3] = Plasma protein binding (Centrifree ultrafiltration); assay type: in vitro ADME
Experimental: Solutions of test compound in DMSO were prepared at 1 mM, 100 uM and 10 uM, 5 ul of each solution of test compound was added to 495 uL plasma, and incubated at 25° C. for 5 min. Sample was added to a Centrifree® device, then centrifuged at 2000× g for 20 min to obtain desired filtrate volume. Initial plasma samples and ultrafiltrates were subjected to LC-MS/MS. % Free peptide=(concentration of ultrafiltrates/concentration of plasma)×100%. % Bound=100%−% Free

[4] = target: T1, human MC4R (Homo sapiens, UniProt P32245); assay: split-luciferase cAMP sensor assay, agonist mode (measurement window 1), hMC4R; assay type: cell-based; conditions: agonist mode; for Emax: % maximal activation, read-out: MC4R cAMP % max activation
T1 construct: host or cells: HEK-293 cells stably expressing the GScAMP22F split-luciferase cAMP sensor and hMC4R, G418 selection
How it was run: (§1)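 EC50 values come from a four-parameter variable-slope fit of luminescence in measurement window 1, capturing direct peptide effects on receptor-expressing cells with a cAMP22f luciferase sensor. Cells were preloaded with 4% D-luciferin, serum-free medium; 20 μM forskolin normalized for cell number and transducer efficiency.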

[5] = target: T2, human MC1R (Homo sapiens, UniProt Q01726); assay: split-luciferase cAMP sensor assay, agonist mode, hMC1R; assay type: cell-based; conditions: MC4R versus MC1R
T2 construct: expressed in transfected cells; host or cells: HEK-293 cells stably expressing hMC1R and the GScAMP22F cAMP sensor
How it was run: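 HEK-293 cells stably expressing hMC1R and the GScAMP22F split-luciferase cAMP sensor, preloaded 120 min at 37° C with D-luciferin in serum-free medium. Peptide responses were taken as peak luminescence over 2-13 min minus 2-min baseline, normalized to the α-MSH ECmax. EC50 was obtained from a four-parameter variable-slope fit.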

[6] = target: T3, human MC3R (Homo sapiens, UniProt P41968); assay: split-luciferase cAMP sensor assay, agonist mode (measurement window 1), hMC3R; assay type: cell-based; conditions: for Emax: % maximal activation, agonist mode, read-out: MC3R cAMP % max activation; for MC4R selectivity vs MC3R: MC4R versus MC3R
T3 construct: expressed in transfected cells; host or cells: HEK-293 cells stably expressing the GScAMP22F split-luciferase cAMP sensor (parent reporter line from Promega); MC3R clone generated in-house, G418 selection
How it was run: as §1

[7] = target: T4, human MC4R receptor (human, UniProt P32245 1-332); assay: cell-based or functional assay
[8] = target: human MC3R (human, UniProt P41968 1-323); assay: cell-based or functional assay
[9] = target: T4, human MC4R receptor; assay: cell-based or functional assay; remark: listed apart in the source
[10] = target: plasma protein; assay: plasma ultrafiltration (Centrifree), LC-MS/MS; peptide 1.0 uM
[11] = target: plasma protein; assay: plasma ultrafiltration (Centrifree), LC-MS/MS; peptide 0.1 uM
[12] = target: plasma protein; assay: plasma ultrafiltration (Centrifree), LC-MS/MS; peptide 10.0 uM

T4 sequence (P32245 whole entry): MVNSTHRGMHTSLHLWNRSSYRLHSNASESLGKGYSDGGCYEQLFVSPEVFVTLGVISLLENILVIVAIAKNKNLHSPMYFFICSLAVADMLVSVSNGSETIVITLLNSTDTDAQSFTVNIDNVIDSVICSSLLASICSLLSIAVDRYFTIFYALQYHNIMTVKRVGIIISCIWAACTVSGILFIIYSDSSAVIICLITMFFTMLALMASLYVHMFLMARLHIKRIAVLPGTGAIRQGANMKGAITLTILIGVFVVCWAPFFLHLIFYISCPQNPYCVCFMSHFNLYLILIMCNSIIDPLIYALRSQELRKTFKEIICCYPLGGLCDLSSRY
T1 sequence (P32245 whole entry): as above
T2 sequence (Q01726 whole entry): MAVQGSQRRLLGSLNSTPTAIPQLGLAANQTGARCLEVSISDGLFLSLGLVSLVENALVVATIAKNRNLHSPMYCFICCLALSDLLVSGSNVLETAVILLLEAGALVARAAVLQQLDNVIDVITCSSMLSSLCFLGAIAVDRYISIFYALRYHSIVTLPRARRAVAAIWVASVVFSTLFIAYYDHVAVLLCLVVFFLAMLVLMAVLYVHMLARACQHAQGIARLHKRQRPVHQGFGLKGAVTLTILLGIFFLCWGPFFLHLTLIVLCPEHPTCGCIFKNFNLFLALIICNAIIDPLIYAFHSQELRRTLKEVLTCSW
T3 sequence (P41968 whole entry): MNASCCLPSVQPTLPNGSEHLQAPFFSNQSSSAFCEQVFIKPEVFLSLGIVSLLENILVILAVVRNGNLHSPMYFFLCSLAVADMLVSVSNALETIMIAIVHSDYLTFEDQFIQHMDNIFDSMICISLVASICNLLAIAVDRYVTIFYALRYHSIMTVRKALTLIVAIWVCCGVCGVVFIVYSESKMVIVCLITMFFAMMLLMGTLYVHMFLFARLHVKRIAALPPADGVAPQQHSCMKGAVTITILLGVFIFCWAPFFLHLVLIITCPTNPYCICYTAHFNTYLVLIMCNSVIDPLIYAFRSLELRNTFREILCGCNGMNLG
Chain of human MC3R (human, UniProt P41968 1-323) (P41968 whole entry): as above

| Molecule | half-life at 1 µM [1] [h] | fraction unbound at 5 min, 0.1 µM ([3]; 0.1 uM) | fraction unbound at 5 min, 1 µM ([3]; 1.0 uM) | fraction unbound at 5 min, 10 µM ([3]; 10.0 uM) | Emax [4] [%] | MC4R selectivity vs MC1R [5] | Emax [6] [%] | MC4R selectivity vs MC3R [6] | MC4R selectivity vs MC1R [7] | MC4R selectivity vs MC3R [7] | % max activation [8] [%] | cAMP EC50 [8] [nM] | % max activation [9] [%] | cAMP EC50 [9] [nM] | Protein Binding (%) [10] [%] | Protein Binding (%) [11] [%] | Protein Binding (%) [12] [%] | also measured |
| --- | --- | --- | --- | --- | --- | --- | --- | --- | --- | --- | --- | --- | --- | --- | --- | --- | --- | --- |
| CC(=O)N[C@@H](CCCN=C(N)N)C(=O)N[C@H]1CSSC[C@H](C(N)=O)NC(=O)[C@H](Cc2c[nH]c3ccccc23)NC(=O)C(CCCN=C(N)N)NC(=O)[C@@H](Cc2ccccc2)NC(=O)[C@H](Cc2cnc[nH]2)NC(=O)[C@@H](C)NC1=O (stereo partly drawn) [CTX-1200, Arg-cyclo(Cys-D-Ala-His-D-Phe-Arg-Trp-Cys), reference compound] | > 3 | 0.57 | 0.43 | 0.39 | – | – | – | – | – | – | – | – | – | – | – | – | – | Brain concentration, individual mice 1-3 ([2]; IP 15 mg/kg, 0.5 h, brain, 15 mg/kg): 306.5 ng/g and 231.5 ng/g and 247.5 ng/g; Plasma concentration, individual mice 1-3 ([2]; IP 15 mg/kg, 0.5 h, plasma, 15 mg/kg): 67 µg/mL and 37.2 µg/mL and 25.8 µg/mL; Brain concentration, individual mice 1-3 ([2]; IP 15 mg/kg, 2 h, brain, 15 mg/kg): 207.5 ng/g and 121.5 ng/g and 220.5 ng/g; Plasma concentration, individual mice 1-3 ([2]; IP 15 mg/kg, 2 h, plasma, 15 mg/kg): 7.19 µg/mL and 11 µg/mL and 4.58 µg/mL; Brain concentration, individual mice 1-3 ([2]; IP 15 mg/kg, 4 h, brain, 15 mg/kg): BLQ; Plasma concentration, individual mice 1-3 ([2]; IP 15 mg/kg, 4 h, plasma, 15 mg/kg): 0.455 µg/mL and 9.59 µg/mL and 0.0178 µg/mL; Brain concentration, individual mice 1-3 ([2]; IP 15 mg/kg, 7 h, brain, 15 mg/kg): BlQ and BLQ (2×); Plasma concentration, individual mice 1-3 ([2]; IP 15 mg/kg, 7 h, plasma, 15 mg/kg): 0.0642 µg/mL and 0.0693 µg/mL and 0.0553 µg/mL; Brain concentration, individual mice 1-3 ([2]; IP 15 mg/kg, 24 h, brain, 15 mg/kg): BlQ and BLQ (2×); Plasma concentration, individual mice 1-3 ([2]; IP 15 mg/kg, 24 h, plasma, 15 mg/kg): 0.00804 µg/mL and 0.00737 µg/mL and 0.00881 µg/mL; tissue level at time at 0.5 h ([2]; female, CD-1, mouse, brain, ip, 15 mg/kg, mice, 0.5 h, mean of 3): 262 ng/g; tissue level at time at 2 h ([2]; female, CD-1, mouse, brain, ip, 15 mg/kg, mice, 2 h, mean of 3): 183 ng/g; level at 0.5 h ([2]; female, CD-1, mouse, mice, IP 15 mg/kg, 0.5 h, plasma, mean of 3): 43.3 µg/mL; level at 2 h ([2]; female, CD-1, mouse, mice, IP 15 mg/kg, 2 h, plasma, mean of 3): 7.59 µg/mL; level at 4 h ([2]; female, CD-1, mouse, mice, IP 15 mg/kg, 4 h, plasma, mean of 3): 3.35 µg/mL; level at 7 h ([2]; female, CD-1, mouse, mice, IP 15 mg/kg, 7 h, plasma, mean of 3): 0.0629 µg/mL; level at 24 h ([2]; female, CD-1, mouse, mice, IP 15 mg/kg, 24 h, plasma, mean of 3, read-out: Plasma concentration, Mean): 0.00807 µg/mL |
| CC(=O)N[C@@H](CCCNC(=N)N)C(=O)N[C@H]1CSSC[C@@H](C(N)=O)NC(=O)[C@H](Cc2c[nH]c3ccccc23)NC(=O)[C@H](CCCNC(=N)N)NC(=O)[C@@H](Cc2ccccc2)NC(=O)[C@H](CCCNC(N)=O)NC(=O)[C@@H](C)NC1=O [CTX-1285, Arg-cyclo(Cys-D-Ala-Cit-D-Phe-Arg-Trp-Cys)] | > 4 | 0.55 | 0.61 | 0.59 | 94 | 134 | 28 | 2.9 | – | – | – | – | – | – | – | – | – | EC50 ([4]; HEK-293 cells stably expressing hMC4R, read-out: MC4R cAMP EC50): 1.7 nM |
| CC(=O)N[C@@H](CCCNC(=N)N)C(=O)N[C@H]1CSSC[C@@H](C(N)=O)NC(=O)[C@@H](Cc2c[nH]c3ccccc23)NC(=O)[C@H](CCCNC(=N)N)NC(=O)[C@@H](Cc2ccccc2)NC(=O)[C@H](CCCNC(=N)N)NC(=O)[C@H](C)NC1=O [CTX-1268, Arg-cyclo(Cys-Ala-Arg-D-Phe-Arg-D-Trp-Cys)] (Ac-RCAR[dF]R[dW]C-NH2; disulfide 2-8) | – | – | – | – | 96 | 6.59 | 44 | 30 | – | – | – | – | – | – | – | – | – | half-life [1]: 1.75 h; fraction unbound at 0.1 uM ([3]; 0.1 uM): 0.48; fraction unbound ([3]; 1.0 uM, read-out: Protein Binding 1.0 uM (converted)): 0.42; fraction unbound ([3]; 10.0 uM, read-out: Protein Binding 10.0 uM (converted)): 0.38 |
| CC(=O)N[C@@H](CCCNC(=N)N)C(=O)N[C@H]1CSSC[C@@H](C(N)=O)NC(=O)[C@H](Cc2c[nH]c3ccccc23)NC(=O)[C@H](CCCNC(=N)N)NC(=O)[C@@H](Cc2ccccc2)NC(=O)[C@H](CCCNC(=N)N)NC(=O)[C@@H](C)NC1=O [CTX-1211, Arg-cyclo(Cys-D-Ala-Arg-D-Phe-Arg-Trp-Cys)] (Ac-RC[dA]R[dF]RWC-NH2; disulfide 2-8 (inferred)) | > 3 | 0.49 | 0.37 | 0.39 | 96 | 3.12 | 91 | 5.49 | – | – | – | – | – | – | – | – | – | – |
| B1 | – | – | – | – | – | – | – | – | 3.16 | 8.38 | 93 | 1.6 | 102 | 0.2 | 39 | 37 | 39 | – |
| Ac-RCAR[dF]R[dW]C-NH2 (disulfide 2-8) [CTX-1268] | – | – | – | – | – | – | – | – | 6.59 | 30 | 44 | 211 | 96 | 7 | 58 | 52 | 62 | – |
| Ac-RC[dA][Cit][dF]RWC-NH2 (disulfide 2-8) [CTX-1285] | – | – | – | – | – | – | – | – | 134 | 2.9 | 28 | 4.9 | 94 | 1.7 | 39 | 45 | 41 | – |
